Consider one molecule from patent US9783513B2, “STAT3 inhibitors and their anticancer use” (Ohio State Innovation Foundation, priority 2012, dated 2017).

SMILES strings stand for the structures. pIC50: −log10 of the molar value. Entries after “also recorded” stand apart in the source; their conditions may differ. Like-named read-outs stand apart in the source and are kept apart here.

As usually defined, the pIC50 is the IC50 on a negative log10 scale, so that one unit is a factor of ten.

One assay concerns HUVEC. Nature of the assay: HUVEC migration assays (wound-healing, Boyden chamber). Format: cell-based, human. The following applies: 300 nM, VEGF 10 ng/ml. How it is done: Endothelial cell (HUVEC) migration was monitored using the wound-healing assay described by Thaloor et al. (Cell Growth Differ. (1998) 9(4):305-12). Briefly, 3×10^4 cells/well were seeded in 24-well plates using M200 medium with LSGS. After cells had attached and formed a monolayer on plate completely, we scraped the cells with same width using yellow tip. After scraped, the cells were washed with PBS and incubated with the medium containing VEGF (10 ng/ml)) with or without LY5 (300 nM). Width was photographed at different time intervals (0 and 24 hours) with a magnification of 40× with a microscopic camera system (Leitz Diavert microscope, Leica, Bensheim; AxioCam, Carl Zeiss, Gottingen, Germany).
HUVECs were grown in M200 containing LSGS until 40-50% confluent. Cells were washed with PBS, trypsinized for 5-10 min, collected with 0.2% FBS and centrifuged at 300 g for 5 min. Cells were then resuspended with 0.2% FBS and counted using a Beckman Coulter Z2. A volume of 400 μl of this mix containing 5×10^5 cells was placed on to Boyden Chambers (8 μm pore) inserts with or without LY5 (300 nM) in 24 well plates with 500 μl of M200. VEGF (R and D Systems) in 1% BSA was added to a final concentration of 10 ng/ml in the lower chambers as a chemo-attractant. Cells were pretreated with antibody for 30 min in suspension, then placed in the chambers and incubated at 37° C. 5% C02 for 18-24 hrs. The Boyden chamber porous membranes were then blotted and fixed with 3.7% formaldehyde containing 0.05% crystal violet for 30 min. After repeated washes with distilled water the membranes were air-dried. […] The remainder of the cells on top of the membrane and within the Boyden chamber, were separately incubated in 80% methanol, shaken at 500 rpm for 30 min, and the extracted dye measured at 570 nm. Migration was quantified using the ratio of the migrated cells over the total cells (migrated plus remaining cells) to determine the fraction of migrating cells in each individual experiment. […]

Assay [1] concerns STAT3 nuclear translocation. Nature of the assay: Immunofluorescence assay, nuclear translocation. It counts as cell-based, human. The following applies: SJSA; 1 or 2.5 μM; 4 h. The procedure:
Cells seeded on glass slides in 6-well plate were cultured in serum-free medium for 24 hours. After the cell density reached about 80%, cells were pretreated with LY5 (1 or 2.5 μM) for 4 hours followed by IL-6 or IFN-γ (50 ng/ml), for 30 min, and were fixed with cold methanol for 15 min. After washing in phosphate-buffered saline (PBS), the slides were blocked with 5% normal goat serum and 0.3% Triton X-100 in PBS (PBST) for 1 hour. The slides were incubated with primary antibodies (1:100) against STAT3 or P-STAT1 proteins (Cell Signaling Technology) overnight at 4° C. Then, the slides were washed with PBST and incubated with goat anti-rabbit FIFC-conjugated secondary antibody (Invitrogen, 1:200). The cells were mounted with Vectashield Hardset mounting medium with DAPI (Vector Laboratories, Burlingame, Calif., USA). Photomicrographs were captured by Leica Microsystems (Bannockburn, Ill., USA).

Assay [2] deals with human sarcoma cell line RH30. Description: Cell viability (MTT) assay, RH30. Format: cell-based. How it is done: Human sarcoma cell lines (RD2, RH30, U2OS) were seeded in 96-well plates at a density of 3,000 cells per well. The cells were incubated at 37° C. for a period of 24 hours. Different concentrations of LY-5 (0.1-10 μM), LY-3 (0.1-20 μM), and LLL12 (0.1-10 μM) prepared as a 20 mM stock solution in sterile DMSO were added in triplicate to the plates in the presence of 10% FBS. 3-(4,5-Dimethylthiazolyl)-2, 5-diphenyltetrazoliumbromide (MTT) was added to evaluate cell viability. The absorbance was read at 595 nm. IC50 values were determined using SigmaPlot 9.0 Software (Systat Software, Inc., San Jose, Calif.).
Alternatively, cells were seeded in 96-well plates in triplicate at a density of 3,000 cells per well and given 24 hours to adhere. Cells were then treated with varying concentrations of the inhibitors in the presence of 10% FBS. The cells were incubated for 72 hours at 37° C. 25 μl of MTT dye (Sigma, #M5655) was added to each sample and incubated for 3.5 hours. After this, 100 μl of N,N-dimethylformamide (Sigma, #D4551) solubilization solution was added to each well. The absorbance at 450 nm was read the following day. Half-Maximal inhibitory concentrations (IC50) were determined using Sigma Plot 9.0 software (Systat Software Inc.).
Table 7 below lists specific compounds as well as experimentally determined STAT3 activity in a cell-based assay. The STAT3 activity was determined using the cell viability assays with human sarcoma cell lines (RD2, RH30, U2OS) as described above. The compound reference numbers (“Ref. No.”) in Table 7 correspond to the compound numbers used in Table 3.

In assay [3] the test system is 96 human protein or lipid kinases. Description: Kinase screening (KINOMESCAN), panel of 96 kinases. Format: binding. The procedure: The potential off-target activity of a representative compound was assessed in a screen against 96 protein and lipid kinases (see FIGS. 56 and 60). The test compound, LY-5, was assessed at 1000 and 5000 nM concentration using in vitro kinase assays. The assays were carried out using standard techniques known to one skilled in the art (KINOMESCAN™, San Diego, Calif.). The data in FIG. 60 show the % inhibition for the tested concentrations of LY-5 in the panel of kinases assessed. The interaction map provides a visualization of the relationship of these inhibition data from FIG. 60 to various kinase families.

On to `NS(=O)(=O)c1cccc2c1C(=O)C=C(Nc1cccnc1)C2=O` [LY-5, 5,8-dioxo-6-(pyridin-3-ylamino)-5,8-dihydronaphthalene-1-sulfonamide], for which, in the assay with HUVEC, the “VEGF induced HUVEC cell migration (wound width)” value is recorded as “decreased cell migration” and the “percentage of migration (migrated cells over total cells)” value is “decreased percentage of migration”. For the same molecule, the “VEGF induced HUVEC cell migration (wound width)” value in the assay on HUVEC (listed as LY5) is “significantly blocked”. In assay [1], the “IFN-γ induced STAT3 nuclear translocation” value is recorded as “does not inhibit” and the “IL-6 induced STAT3 nuclear translocation” value is “inhibits”. In addition, the negative-log IC50 (pIC50) in assay [2] (Table 7, read-out: IC50 RH30) is 6.26. Besides, in assay [2] (Table 8, read-out: IC50 values vs. cell lines, RH30), the negative logarithm of the IC50 (pIC50) is 6.26. For the same molecule, the “inhibitory binding to the active sites of 96 kinases” value in assay [3] (1 μM drug concentration, FIG. 56) was “no apparent inhibitory binding”. For the same molecule, the “inhibition of the panel of kinases” value in assay [3] (1000 and 5000 nM) was “did not significantly inhibit; also recorded: no apparent activity”.
